Here are results for 33 compounds from PubChem BioAssay (NCI).

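Cells were grown in 96-well plates and exposed to each compound for 48 hours at five concentrations; endpoints were interpolated linearly between bracketing concentrations, or set to the highest concentration if not reached. GI50 marks 50% less growth. At the TGI there is no net growth.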 Where only a bound is given, the exact number is not on record here.

Holding throughout (assay): NCI-60 cell line screen, 48 h
The subject of experiment [1] is UACC-62 melanoma.
The subject of experiment [2] is SK-MEL-2 melanoma.
Experiment [3] relates to DU-145 prostate.
Experiment [4] deals with NCI-H522 lung.
Experiment [5] has as its system HOP-62 NSCLC.
The test system of experiment [6] is OVCAR-8 ovarian.
In experiment [7] the test system is SF-295 CNS.
The test system of experiment [8] is 786-0 renal.
For experiment [9], the system named is SK-MEL-5 melanoma.
In experiment [10] the test system is BT-549 breast.

`CC(C)(C)[Si](C)(C)OCC1CCC(n2cnc3c(NC(=O)c4ccccc4)ncnc32)O1` (stereo not given): the TGI in [1] was determined as 29.7 µM; in [2], 45.6 µM; in [3] it was 37 µM; in [4], 33.2 µM; in experiment [5], 38 µM; in experiment [6], 60.2 µM. In addition, the TGI in experiment [7] turned out to be 35.8 µM; in experiment [8] it was 31.3 µM; in experiment [9], 23.7 µM.

As for `COc1cc(Nc2cnc3cc(C(F)(F)F)ccc3n2)cc(OC)c1OC`, the TGI in [1], in experiment [2], in experiment [5], in [6], in experiment [7] and in experiment [8] was above 100 µM throughout.

With `CCCc1c2c([nH]c(=O)c1C)C(=O)c1[nH]c(=O)c(C)c(CCC)c1C2=O`, the TGI in [5] is above 100 µM; in experiment [6], 17.8 µM; in [7], above 100 µM; in experiment [8], above 100 µM; in experiment [9], 17.6 µM.

As for `CCCCCCCCCCCCCS(=O)(=O)O`, the TGI in experiment [1], in [2], in experiment [4], in experiment [5], in [6] and in experiment [7] was above 100 µM throughout. Moreover, the TGI in experiment [8] and in experiment [9] was above 100 µM in each case.

Turning to `O=C(O)c1ccc(NC(=O)C2C(=O)C(=O)N(c3ccc(C(=O)O)cc3)C2=O)cc1` (stereo not given), the TGI in experiment [1], in [2], in [4], in [5], in [6] and in experiment [7] was above 100 µM throughout. In experiment [8], the TGI is above 100 µM.

For the compound `CCN(CC)CCCN(c1cc(OC)cc2nccnc12)S(=O)(=O)c1ccc(C)cc1`, the TGI in experiment [1], in experiment [2], in experiment [4], in experiment [5], in [6] and in experiment [7] was above 100 µM throughout. Moreover, the TGI in experiment [8] and in experiment [9] was above 100 µM in each case.

Consider `O=C1C2C(C(=O)N1O)N(Cc1ccccc1)C(=O)N2Cc1ccccc1` (stereo not given), for which the TGI in experiment [1], in experiment [4], in [5], in [6], in experiment [7] and in experiment [8] was above 100 µM each time. In experiment [9], the TGI was above 100 µM.

For `CC[C@@H]1C[C@@H]2CN3CCc4c([nH]c5ccc(OC)cc45)C(COC(=O)c4ccc(OC)c(OC)c4)(C2)C13`, the TGI in experiment [1] is 28 µM; in experiment [5], 93 µM; in experiment [6], above 100 µM; in experiment [7], 70.6 µM; in experiment [8], above 100 µM.

Turning to `C/C(=N\NC(=S)N1CCCCCC1)c1nccnc1C`, the TGI in experiment [1] is 1.3 µM; in experiment [2], 50.2 µM; in experiment [5] it was above 100 µM; in experiment [6], above 100 µM; in experiment [7] it was 16.6 µM; in experiment [8] it was above 100 µM. This compound also yielded a TGI in experiment [9] of 12.2 µM.

Regarding `COc1nc2c(OC)cccc2c(OC)c1C=O`, the TGI in experiment [1], in [2], in [4], in experiment [5], in experiment [6] and in experiment [7] was above 100 µM each time. Further, the TGI in experiment [8] and in experiment [9] was above 100 µM in each case.

For the compound `O=C(Nc1ccc(Cl)c(C(F)(F)F)c1)C(=O)C(C(=O)/C=C/c1ccccc1)C1OC(=O)c2ccccc21` (stereo not given), the TGI in [1], in experiment [4], in [5], in experiment [6], in experiment [7] and in experiment [8] was above 100 µM throughout.

With `CC(C)C(C(=O)O)N(CC1(O)OCC(O)C(O)C1O)N=O` (stereo not given), the TGI in experiment [1], in [2], in [4], in [5], in experiment [6] and in experiment [8] was above 100 µM each time. In experiment [9], this compound came in with a TGI above 100 µM.

`COc1cccc(N2C(=O)c3c(c4[nH]c5ccccc5c4c4ccc(C(C)(C)C)cc34)C2=O)c1`: the TGI in experiment [1], in experiment [2], in experiment [4], in experiment [5], in [6] and in experiment [7] was above 100 µM in each case. In addition, the TGI in experiment [8] and in experiment [9] was above 100 µM each time.

For the compound `CN/N=C(/Cc1occc(=O)c1O)C(=O)Nc1ccc(C)c(C)c1`, the TGI in experiment [1], in experiment [2], in experiment [4], in experiment [5], in [6] and in experiment [7] was above 100 µM in each case. The TGI in [8] and in experiment [9] was above 100 µM each time.

Consider `Cc1ccc(S(=O)(=O)N/N=C(\CCN2CCCC2)CC(c2ccccc2)c2c(O)c3ccccc3oc2=O)cc1` (stereo not given), for which the TGI in experiment [1], in experiment [2], in experiment [4], in experiment [5], in experiment [6] and in [7] was above 100 µM in each case. The TGI in experiment [8] and in experiment [9] was above 100 µM each time.

Regarding `C/C(=N\N=C(N)N)C(CN(CC(C)C)CC(C)C)C(=O)Nc1ccc(C)cc1C` (stereo not given), the TGI in experiment [1], in [2], in [4], in experiment [5], in experiment [6] and in experiment [7] was above 100 µM throughout. For the same compound, the TGI in experiment [8] and in experiment [9] was above 100 µM throughout.

With `CN(N=O)C(=O)Nc1c[nH]c(=O)[nH]c1=O`, the TGI in [1], in [2], in experiment [3], in [4], in [5] and in [6] was above 100 µM throughout. Besides, the TGI in [7], in [8] and in experiment [9] was above 100 µM in each case.

Take `CC(C)(C)NNC(=O)/C(=C/c1ccc(Oc2ccc(Cl)c(Cl)c2)cc1)NC(=O)c1ccccc1`: the TGI in experiment [1], in experiment [2], in [4], in experiment [5], in experiment [6] and in experiment [7] was above 100 µM in each case. For the same compound, the TGI in experiment [8] and in experiment [9] was above 100 µM in each case.

As to `CC(=O)N(C)OC(=O)CC(=O)c1ccccc1`, the TGI in experiment [1], in [4], in experiment [5], in experiment [6], in experiment [7] and in experiment [8] was above 100 µM each time. Also, in [9], the TGI was above 100 µM.

In the case of `O=C1NC(=O)C(C(=O)C(=O)Nc2ccc(Br)cc2)C(=O)N1`, the TGI in [1], in [4], in experiment [6], in experiment [7], in experiment [8] and in experiment [9] was above 100 µM in each case.

Turning to `CC1=CC=NN2C(=O)[C@H](C)C2C1` (stereo not given in full), the TGI in experiment [1], in experiment [2], in experiment [4], in experiment [5], in [6] and in experiment [7] was above 100 µM throughout. In addition, the TGI in experiment [8] and in experiment [9] was above 100 µM throughout.

As to `Cn1ncc(=S)[nH]c1=S`, the TGI in [1], in experiment [2], in [4], in experiment [5], in [6] and in experiment [7] was above 100 µM throughout. Besides, the TGI in experiment [8] is above 100 µM.

In the case of `CC(Cn1c2c3ccccc3ccc2c2oc(=O)c3ccccc3c21)N(C)C` (stereo not given), the TGI in experiment [1], in experiment [2], in experiment [4], in experiment [6], in experiment [7] and in experiment [8] was above 100 µM throughout.

In the case of `COC(=O)c1c[nH]cc1CCc1c[nH]cc1C(=O)OC`, the TGI in experiment [2], in experiment [4], in experiment [5], in [6], in [7] and in experiment [8] was above 100 µM throughout.

With `Nc1ccccc1C#CC#Cc1ccccc1N`, the GI50 was 11.8 µM in experiment [1]; 21.7 µM in experiment [2]; 11.5 µM in [4]; 20.5 µM in experiment [10]; 15.9 µM in [5]; 28.7 µM in [6]. In addition, the GI50 is 2.76 µM in experiment [7], 13.2 µM in experiment [8] and 4.36 µM in experiment [9]. Besides, the TGI in experiment [1] was 25.3 µM; in experiment [2], 51.7 µM; in experiment [4] it was 38.6 µM; in experiment [10], 49 µM; in experiment [5], 29.9 µM; in experiment [6], above 100 µM. The TGI in [7] is above 100 µM; in experiment [8], 27 µM; in experiment [9] it was 17.9 µM.

Turning to `O=C(Cc1nc2ccccc2s1)C(=O)Nc1ccc(Cl)cc1`, the TGI in [1], in [2], in experiment [4], in experiment [5], in [6] and in experiment [7] was above 100 µM in each case. The TGI in experiment [8] and in experiment [9] was above 100 µM in each case.

With `COc1ccc(OCC(=O)O)c2c1CCC(C(C)C)C2=O` (stereo not given), the TGI in [1], in experiment [2], in experiment [4], in [5], in experiment [6] and in experiment [7] was above 100 µM throughout. The TGI in experiment [8] and in experiment [9] was above 100 µM in each case.

In the case of `CCOC(=N)CC(=O)Nc1ccc(Cl)cc1`, the TGI in [1], in experiment [2], in experiment [4], in [5], in experiment [6] and in experiment [7] was above 100 µM throughout. Moreover, the TGI in experiment [8] and in experiment [9] was above 100 µM throughout.

Turning to `O=C(CCN1CCN(c2cccc(Cl)c2)CC1)N1CCc2c([nH]c3ccccc23)C1c1cccnc1` (stereo not given), the GI50 was 5.24 µM in [2], 4.85 µM in experiment [4], 5.96 µM in experiment [8] and 7.72 µM in experiment [9]. Moreover, the TGI came out at 18.2 µM in experiment [2]; 19.1 µM in experiment [4]; 23.9 µM in experiment [5]; 21.7 µM in experiment [6]; 18.7 µM in [8]; 21.9 µM in [9].

As for `O=C(O)c1ccc(S(=O)(=O)c2ccccc2)c([N+](=O)[O-])c1`, the TGI in [1], in experiment [2], in experiment [4], in experiment [5], in experiment [7] and in [8] was above 100 µM throughout. In addition, the TGI in [9] was above 100 µM.

As for `COC(=O)C1(C)C=C(Nc2ccccc2)C(=O)N1c1ccccc1` (stereo not given), the TGI in [1], in experiment [2], in experiment [4], in [5], in [6] and in experiment [7] was above 100 µM each time. The TGI in experiment [8] and in experiment [9] was above 100 µM throughout.

As to `COc1ccc2[nH]cc(CCNC(C)=O)c2c1`, the TGI in experiment [1], in experiment [2], in experiment [4], in experiment [5], in [6] and in experiment [7] was above 100 µM in each case. Further, the TGI in experiment [8] and in experiment [9] was above 100 µM in each case.

Regarding `C/C(CN1C(=O)c2ccccc2C1=O)=N\NS(=O)(=O)c1cccc([N+](=O)[O-])c1`, the TGI in experiment [1], in experiment [2], in [4], in experiment [5], in experiment [6] and in experiment [7] was above 100 µM each time. For the same compound, the TGI in [8] and in experiment [9] was above 100 µM each time.
